One data set has as its system female mice. Nature of the data set: Acute toxicity. In kind it is in vivo. The conditions noted are these: 8, 25 and 50 μg/kg b.w., i.v.; observed 15 days. The method, then: Acute toxicity of synthetic peptides was determined in female mice (weight ca. 20 g). Groups of 6 animals were used for each experiment and control.
Peptides Seq.Id.No: 2,3,4 and 6 were applied in a dosage of 8, 25 and 50 μg/kg b.w., i.v. Control group was treated with saline (0.9%, 5.0 ml/kg b.w.).

Data set [1] deals with NMRI-Hannover female mice. Nature of the data set: Influence on vitamin A induced malformation. In kind it is in vivo. The conditions noted are these: peptide alone, 10 μg or 10 ng/kg b.w., i.p., tenth day of pregnancy. The method, then:
12. Influence on induced malformation
NMRI-Hannover female mice, two months old, 25 g b.w., but not previously exposed to copulation were used in all experiments. The female mice in the estrus phase were mated overnight with well experienced healthy male mice. The mice were sacrified after 20 days of pregnancy.
Vitamin A was applied in a dose of 15700 U/kg b.w., i.m., at tenth day of the pregnancy (0.05 ml/kg b.w.). Peptide Seq.Id.No: 4 was given simultaneously in a dosage of 10 μg or 10 ng/kg b.w.,i.p.
Control: saline 5.0 ml/kg b.w., i.p.
Animals non treated with vitamin A receiving at the same time i.p. saline or peptide 4 in the same dosage served as healthy control.

In data set [2] the test system is Albino Wistar (male) rats. Nature of the data set: Gastric ulcer induced by restraint stress. It counts as in vivo, rat. The conditions noted are these: 10 μg or 10 ng/kg b.w., i.p. or i.g., 1 hour before 48 hours immobilization; even at 10 ng/kg. The method, then: 1.) Gastric ulcer induced by restraint stress
Albino Wistar (male) rats (180-200 g), were used in the experiments. All the animals were immobilized in a supine position for 48 hours at room temperature. Immediately thereafter they were sacrified and the lesions measured. The peptides Seq. Id. No: 4, 6 and 2 were applied in dosage of 10 μg or 10 ng/kg b.w., i.p. or i.g. 1 hour before noxious procedure.

Another data set concerns Wistar male rats. Nature of the data set: Turpentine induced buccal edemas. In kind it is in vivo, rat. The conditions noted are these: 10 μg/kg b.w., i.p. and i.g., 1 hour before turpentine; measured 24 hours after induction. The method, then:
3. Turpentine induced buccal edemas
Wistar male rats (180-240 g), N=10 in each group. Turpentine was given intramucosally 0.02 ml/rat. Control: 0.9% saline intramucosally (0.02 ml/rat, 2×). Peptides Seq. Id. No: 2 and 4 were applied in a dose of 10 μg and 10 ng/kg, i.p. and i.g., 1 hour before turpentine. Buccal edemas were measured 24 hours after edema induction. Statistical analysis: Mann-Whitney test. The investigated peptides were effective in a dosage of 10 μg/kg b.w.

No end group written: not given here.

For the substance EPPPLKPA [Seq. Id. No: 6], the “signs of toxicity or death” value in the data set with female mice is “no signs of toxicity or death”.

Regarding LEPPPLKPADALGV [Seq. Id. No: 4], in data set [1], the “malformation in animals not treated with vitamin A” value is given as “No malformation”. Moreover, in the data set on female mice, the “signs of toxicity or death” value is “no signs of toxicity or death”. Consider “Seq. Id. No: 2: synthetic peptide of 8 to 15 amino acid residues with BPC-type activity; sequence not printed in this text (GEPPPGKPADDAGLV)”, for which the “protection against restraint stress gastric lesions” value in data set [2] was “strongly protective”. Further, the “effect on buccal edemas” value in the data set on Wistar male rats was “effective”. Moreover, the “signs of toxicity or death” value with female mice is reported as “no signs of toxicity or death”. As for LEPPPLKPADDALGV [Seq.Id.No: 3], the “signs of toxicity or death” value in the data set with female mice is recorded as “no signs of toxicity or death”.

(Values after patent US6211151A, “Peptides with organo-protective activity, a process for preparation thereof and their use in therapy” (priority 1992, dated 2001).)
